Patent US20070190651A1, “Myogenic Development and Protection of Stem Cells Against Inflammation and Apoptosis By Statins and Isoprenoid Pathway Inhibitors” (Board of Regents of the University of Texas System, priority 2006, published 2007)
Entries after “also recorded” stand apart in the source; their conditions may differ. Residues, ends and D or L forms follow the SMILES beside them. *: point of attachment. Cbz = O=C(OCc1ccccc1)*

Assays:
[1] = system: mouse peritoneal macrophages; experiment: TUNEL staining of acLDL-loaded mouse peritoneal macrophages; assay type: cell-based; details: for number of TUNEL positive cells: acLDL-preloaded macrophages, agent alone, over incubation time
Experimental: FIG. 15 is a graph showing TUNEL staining of mouse peritoneal macrophages. Macrophages loaded with acLDL were treated with CP-113,818 (▪), CP-113,818 plus U18666A (♦), or U18666A in medium containing 0.2% BSA (□). After treatment the cells were fixed and nuclear DNA fragments were labeled using a fluorescent TUNEL assay.
It was tested whether cholesterol accumulation can induce apoptosis in cells treated with the acyl coenzyme-A:cholesterol acyltransferase (ACAT) inhibitor CP-113,818. In situ labeling of DNA fragments were analyzed in murine macrophages treated with the inhibitors using the TUNEL technique. […] Few TUNEL positive cells were detected in untreated control and in cultures treated with CP-113,818 plus U18666A for 24 h. Thus, inhibition of cholesterol transport with U18666A blocked the apoptotic effect of the ACAT inhibitor.

[2] = system: iNOS; experiment: Nitrite production (Griess reaction) in H9c2 cardiac myoblasts; assay type: cell-based, rat; details: for effect on nitrite production in cells treated with simvastatin plus IL-1α: added to simvastatin + IL-1α 20 ng/mL
Experimental: Cell cultures. H9c2 cells purchased from American Type Culture Collection (ATCC, Rockville, Md.) are spontaneously immortalized ventricular myoblasts from the rat embryo, with preservation of several electrical and biochemical characteristics found in adult cardiomyocytes. […] After certain time intervals, 100 μL/well culture media were collected for determination of nitrite production. Assay for NO Production. The activity of iNOS was determined in the culture medium by assaying nitrites, taken as an index of NO production, using the Griess reagent (1% sulphanilic acid and 0.1% N-[1-naphtyl] ethylenediamine-HCl in 5% phosphoric acid) as reported previously (4,18,19). Equal volumes of medium and Griess reagent were mixed, and the purple products quantified spectrophotometrically at 550 nm. Nitrite concentrations were determined from a linear standard curve constructed with known concentrations of sodium nitrite (0 to 40 μmol/L nitrite). Nitrite Assays. Nitrite, a stable end-product of nitric oxide, was measured by using Griess reagent (1% sulphanilic acid and 0.1% N-[1-naphtyl] ethylenediamine-HCl in 5% phosphoric acid). Equal volumes of medium and Griess reagent were mixed, and the resulting purple product quantified by spectrophotometric assay at 550 nm. Nitrite concentrations were calculated from a linear standard curve constructed with known concentrations of sodium nitrite (0-14 μmol/L nitrite) (19).

[3] = animals; cited from earlier work
[4] = system: hESC-derived EB; experiment: hESC embryoid body formation with proteasomal inhibitor; assay type: cell-based, human; details: MG132 at 100 nm in hanging drops, then regular culture 1-2 days
Experimental: FIG. 13 is a pair of photomicrographs showing hESC-derived EB after treatment with MG132 for 2 days. a, untreated and b, treated.
To determine whether protein ubiquitination has any impact on EB formation, hESCs were cultured in hanging-drops with the proteasomal inhibitor MG132 at 100 nm, and then plated in regular culture for 1-2 days.

[5] = system: Rho kinase; details: cited from earlier work
[6] = system: iNOS; experiment: Immunoblotting for iNOS protein in cytokine-stimulated H9c2 cardiac myoblasts; assay type: cell-based, rat; details: for effect on simvastatin inhibition of cytokine-induced iNOS protein expression: added to simvastatin + IL-1α or TNF-α
Experimental: Cell cultures. H9c2 cells purchased from American Type Culture Collection (ATCC, Rockville, Md.) are spontaneously immortalized ventricular myoblasts from the rat embryo, with preservation of several electrical and biochemical characteristics found in adult cardiomyocytes. They were cultured in DMEM medium (ATCC) supplemented with 10% heat-inactivated fetal bovine serum (FBS) in 95% air and 5% CO2 at 37° C. […] After certain time intervals, 100 μL/well culture media were collected for determination of nitrite production.
Immunoblotting. Total proteins were isolated from rat cardiac myoblasts (H9c2 cells) or embryonic stem cells in an ice-cold lysis buffer containing 10 mmol/L Tris (tris(hydroxymethyl)aminomethane) (pH 7.4), 1% sodium dodecyl sulfate (SDS) and 1× protease inhibitor (1 mmol/L sodium orthovanadate). Proteins (15 μg/lane) were separated under the reducing conditions (125 mM Tris pH 6.8, 4% SDS, 10% glycerol, 0.006% bromophenol blue, 2% β-mercaptoethanol) by electrophoresis onto 5-10% SDS-polyacrylamide gel and electro-blotted to nitrocellulose membranes (Osmonics, Westborough, Mass.). The membranes were reversibly stained with Ponceau red (Sigma) to verify equal protein loading and/or transfer. After blocking in Tris-buffered saline (0.2 M Tris and 8% NaCl) containing 5% non-fat powdered milk and 0.1% Tween 20 for 1 hour at room temperature, the membranes were incubated overnight at 4° C. with following primary antibodies to (a) iNOS (Transduction Laboratories, Lexington, Ky.; BD Biosciences); (b) NF-κB p65/rel (Santa Cruz Biotechnologies, Santa Cruz, Calif.); (c) ser^32-phosphorylated inhibitor IκBα (Santa Cruz); (d) Bad (BD Biosciences, San Jose, Calif.); (e) Bcl-xL (BD Biosciences); (f) proliferating cell nuclear antigen (PCNA; BC Biosciences); (g) ryanodine receptor (Santa Cruze Biotechnology, Inc., Santa Cruz, Calif.); (h) α-sarcomeric actinin (Sigma); (i) myocardin A (developed by immunizing rabbits with a synthetic myocardin A peptide); (j) Tie-2 (Santa Cruz); (k) manganese superoxide dismutase (Santa Cruz); and (1) β-tubulin (Sigma). The blots were incubated with horseradish peroxidase-coupled secondary antibodies, washed and developed by using a SuperSignal West Pico Chemiluminescent Substrate Kit (Pierce, Rockford, Ill.). Intensity of each immunoreactive protein band was quantified by densitometric analysis. Cytokine-stimulated RAW 264.7 cells (Transduction Laboratories, Lexington, Ky.) were used as positive controls.

[7] = system: NF-κB p65/RelA; experiment: Immunoblotting for p65/RelA subunit of NF-κB, total cellular or nuclear proteins of H9c2 cells; assay type: cell-based, rat; details: Y-27632 10^−4 mol/L
[8] = system: β-adrenergic receptors; experiment: Edge-motion detection of mESC-derived contractile myogenic cells; assay type: cell-based, murine
Experimental: FIG. 11 is a series of graphs showing edge-motion detection of mESC-derived contractile myogenic cells untreated (upper) or treated with isoproterenol (10 ng/ml) in the absence (middle) or presence (lower) of propanolol (25 ng/ml).
hESC grown in DMEM media with 10% fetal bovin serum and a group of growth factors were induced to differentiate in a hang-drop 3D cell culture system. hESCs from two (H1 or H9) lines were cultured with a mouse fetal fibroblast feeder layer. After forming EBs in the hanging-drop 3D system they were replated in 12-well plates. […] Surrounding the beating colonies, the cells developed a blood vessel-like structure (FIG. 10). Using the edge-motion detection technique, a single beating myogenic cell within the developing EBs was recorded. This provides a functional marker showing the differentiational potential in cardiomyogenesis.

[9] = system: murine embryonic stem cells; assay type: cell-based; details: day 12
Experimental: At day 12, the number of contracting EB outgrowths (Panel A) and extension of beating area (Panel B) were detrmined by morphometry. The results were plotted as percentages of the total EBs counted in each well and shown as the mean ±SD for each of the 3 separate experiments. *, P<0.05 vs untreated control; #, P<0.05 vs simvastatin-treated control.
The murine ESC (mESC) line CCE was obtained from American Type Culture Collection (ATCC, Rockville, Md.). Murine ESCs were cultured without feeder cells in Dulbecco's modified Eagle's medium supplemented with 10% ESC-qualified Fetal Bovine Serum (FBS) (Stem Cell Technologies, Vancouver, Va.), pyruvate (Stem Cell Technologies, stock solution diluted 1:100), 2 mM L-glutamine, nonessential amino acids (Stem Cell Technologies, stock solution diluted 1:100), 100 IU/mL penicillin, 0.1 mg/mL streptomycin, and leukemia inhibitory factor (LIF) (Stem Cell Technologies). To induce differentiation, EBs were formed from undifferentiated mESCs in hanging drops of 400 cells in 20 μL of medium without LIF. After 5 days in suspension, EBs were plated on gelatin-coated dishes and cultured in cardiomyocyte-differentiation medium (Iscove's modified Eagle's medium, supplemented with 15% FBS, 2 mM L-glutamine, 5×10^−5 M β-mercaptoethanol, nonessential aminoacids, 100 IU/mL penicillin, 0.1 mg/mL streptomycin).
Statin Treatment. […] The inhibition of endogenous cholesterol synthesis was the mechanism used for analyzing the effect of endogenous cholesterol depletion on EB differentiation. By days 8 through 12 after plating, spontaneously contracting cell clusters could be observed within the EB outgrowths. Culture media from both simvastatin-treated and untreated cells were changed each day after day 3.
Spontaneous cardiac differentiation of mouse embryonic stem cells (mESCs) was assessed in vitro as the presence of rhythmically beating […] (EB) outgrowth. […] Thereafter, EB outgrowths were counted periodically under the inverted microscope equipped with a digital video camera, to determine whether or not they contained beating foci at different time points (days 3, 5, 7, 10, 12, and 14). At approximately day 7, contracting areas began to appear. […] Concomitant with the increased number of beating EBs, the size of the beating area for simvastatin-treated EBs increased 2-fold (evaluated at day 12) compared to that of untreated control EBs, a significant augmentation (p<0.05) (FIG. 22B).

[10] = system: IκBα; experiment: Immunoblotting for ser32 phosphorylated IκBα in H9c2 cells; assay type: cell-based, rat; details: 24 h
Experimental: Immunoreactive bands were quantified by densitometry (Panel B).
Immunoblotting. Total proteins were isolated from rat cardiac myoblasts (H9c2 cells) or embryonic stem cells in an ice-cold lysis buffer containing 10 mmol/L Tris (tris(hydroxymethyl)aminomethane) (pH 7.4), 1% sodium dodecyl sulfate (SDS) and 1× protease inhibitor (1 mmol/L sodium orthovanadate). Proteins (15 μg/lane) were separated under the reducing conditions (125 mM Tris pH 6.8, 4% SDS, 10% glycerol, 0.006% bromophenol blue, 2% β-mercaptoethanol) by electrophoresis onto 5-10% SDS-polyacrylamide gel and electro-blotted to nitrocellulose membranes (Osmonics, Westborough, Mass.). The membranes were reversibly stained with Ponceau red (Sigma) to verify equal protein loading and/or transfer. […] Intensity of each immunoreactive protein band was quantified by densitometric analysis. […]

SMILES: CCCCCCCC[C@H](SCCCCCC)C(=O)Nc1c(SC)cc(C)nc1SC [CP-113,818]
- number of TUNEL positive cells [1]: increase in the number of TUNEL positive cells

SMILES: CC(C)=CCC/C(C)=C/CC/C(C)=C/COP(=O)(O)OP(=O)(O)O [FPP, farnesylpyrophosphate]
- effect on nitrite production in cells treated with simvastatin plus IL-1α [2]: did not alter nitrite accumulation

SMILES: CCN(CC)CCOc1ccc(C(O)(Cc2ccc(Cl)cc2)c2ccc(C)cc2)cc1 (stereo not drawn) [triparanol]
- teratogenic effect [3]: holoprosencephalic brain anomalies

SMILES: CC(C)C[C@@H](C=O)NC(=O)[C@H](CC(C)C)NC(=O)[C@H](CC(C)C)NC(=O)OCc1ccccc1 [MG132] (Cbz-Leu-Leu-Leu-aldehyde)
- EB morphology / cell differentiation [4]: spread out and surrounded by differentiated cells
- EB morphology / cell differentiation ([4]; listed as MG-132): helped the cell differentiation

SMILES: Clc1ccccc1CNCC1CCC(CNCc2ccccc2Cl)CC1 (stereo not drawn) [AY 9944]
- teratogenic effect [3]: holoprosencephalic brain anomalies

SMILES: CC(C)c1c(C(=O)Nc2ccccc2)c(-c2ccccc2)c(-c2ccc(F)cc2)n1CC[C@@H](O)C[C@@H](O)CC(=O)O [atorvastatin]
- Rho kinase activity [5]: inhibit the Rho kinase activity

SMILES: CC(C)=CCC/C(C)=C/CC/C(C)=C/CC/C(C)=C/COP(=O)(O)OP(=O)(O)O [GGPP, geranylgeranylpyrophosphate]
- effect on simvastatin inhibition of cytokine-induced iNOS protein expression ([6]; H9c2): reversed the simvastatin-mediated suppression; also recorded: prevented the inhibitory effect of simvastatin; also recorded: attenuates the simvastatin inhibitory effect
- effect on nitrite production in cells treated with simvastatin plus IL-1α [2]: attenuates the simvastatin inhibitory effect; also recorded: reversed the simvastatin-mediated suppression

SMILES: CC(C)CCC[C@@H](C)[C@H]1CC[C@H]2[C@@H]3CC=C4C[C@@H](O)CC[C@]4(C)[C@H]3CC[C@]12C [cholesterol]
- effect of exogenous cholesterol on the statin effect on iNOS expression [6]: does not prevent the statin effect

SMILES: C[C@@H](N)[C@H]1CC[C@H](C(=O)Nc2ccncc2)CC1 [Y-27632]
- effect on simvastatin inhibition of cytokine-induced iNOS protein expression ([6]; H9c2): almost abolished the inhibitory effect of simvastatin
- cytokine-induced iNOS protein expression in the absence of simvastatin ([6]; H9c2, cytokine-stimulated, no simvastatin): did not alter cytokine-induced iNOS protein expression
- nuclear NF-κB (p65) translocation in presence of IL-1α [7]: no major effect on the nuclear NF-κB translocation
- nitrite production (iNOS activity) in cytokine-treated cells ([2]; IL-1α, Y-27632 10^−6 to 10^−5 mol/L, no simvastatin): enhances NO production; also recorded: dose-dependently increased the iNOS activity
- effect on nitrite production in cells treated with simvastatin plus IL-1α [2]: reversal of the statin-induced nitrite reduction; also recorded: reversed the statin inhibitory effect on iNOS activities

SMILES: CC(C)NCC(O)COc1cccc2ccccc12 (stereo not drawn) [propanolol]
- effect on isoproterenol stimulation of contraction ([8]; propanolol 25 ng/ml with isoproterenol 10 ng/ml): almost abolished the isoproterenol stimulatory effect

SMILES: CCC(C)(C)C(=O)O[C@H]1C[C@@H](C)C=C2C=C[C@H](C)[C@H](CC[C@@H]3C[C@@H](O)CC(=O)O3)[C@H]21 [simvastatin]
- size of the beating area, increase compared to untreated control EBs [9]: 2 fold
- percentage of beating EB outgrowths ([9]; simvastatin, untreated control 18±0.1%): 42±0.1%
- lowest concentration achieving the inhibitory effect on iNOS expression ([6]; H9c2, cytokine-stimulated): 10^−8 mol/L
- concentration giving the highest levels of phosphorylated IκBα [10]: 10^−7 mol/L

SMILES: O=C(O)c1ccc(CCN2CCN(C/C=C/c3ccc(Cl)cc3)CC2)cc1 [BM 15766]
- teratogenic effect [3]: holoprosencephalic brain anomalies

SMILES: CCN(CC)CCO[C@H]1CC[C@@]2(C)C(=CC[C@@H]3[C@@H]2CC[C@]2(C)C(=O)CC[C@@H]32)C1 [U18666A]
- number of TUNEL positive cells with CP-113,818 co-treatment ([1]; U18666A simultaneously with CP-113,818): greatly reduced
- number of TUNEL positive cells [1]: no effect on the number of cells bearing this marker of apoptosis

SMILES: CC(C)NCC(O)c1ccc(O)c(O)c1 (stereo not drawn) [isoproterenol]
- contraction of beating myocytes ([8]; mESC-derived EBs, isoproterenol 10 ng/ml): marked increased contraction in both frequency and ampltitute
